From patent US8415469B2, “Compounds and methods for kinase modulation, and indications therefor” (Plexxikon Inc., priority 2005, dated 2013)

Columns and labels:
Assay type in all cases: biochemical
Ret = molecular target: T1, Ret (Homo sapiens, UniProt P07949); assay: AlphaScreen kinase assay, Ret; conditions: read-out: IC50, activity toward kinase Ret
T1 construct: P1378.pET-SF BI-PTP RET H661-R1012 HIS; made in house
T1 sequence (P07949 with tags, fused parts or gaps): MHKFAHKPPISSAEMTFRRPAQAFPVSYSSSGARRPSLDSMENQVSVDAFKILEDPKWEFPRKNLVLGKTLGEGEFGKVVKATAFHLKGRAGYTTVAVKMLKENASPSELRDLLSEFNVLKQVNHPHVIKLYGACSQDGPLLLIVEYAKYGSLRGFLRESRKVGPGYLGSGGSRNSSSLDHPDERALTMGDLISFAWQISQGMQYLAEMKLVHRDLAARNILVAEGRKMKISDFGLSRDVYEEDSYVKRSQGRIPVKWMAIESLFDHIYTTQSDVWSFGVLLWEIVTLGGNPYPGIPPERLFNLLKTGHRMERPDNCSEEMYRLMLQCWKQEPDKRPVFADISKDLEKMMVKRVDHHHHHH

Jnk2 = molecular target: T2, Jnk2 (Homo sapiens, UniProt P45984); assay: AlphaScreen kinase assay, Jnk2; conditions: read-out: IC50, activity toward kinase Jnk2
T2 construct: purchased Roche Protein Expression Group (Indianapolis, IN)
Procedure, shortened: (§1)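 Eight concentrations per compound (1:3 serial dilution of 20 mM DMSO stock) were tested. Read-out: AlphaScreen signal from phospho-antibody acceptor and streptavidin donor beads bound to biotinylated peptide substrate, reduced on kinase inhibition.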

Kit = molecular target: T3, Kit (Homo sapiens, UniProt P10721); assay: AlphaScreen kinase assay, Kit; conditions: read-out: IC50, activity toward kinase Kit
T3 construct: P1332.N6 BI PTP KIT M552-K948-X COD; His6 (N); made in house; host or cells: E. coli (PTP1B co-expressed)
T3 sequence (P10721 with tags, fused parts or gaps): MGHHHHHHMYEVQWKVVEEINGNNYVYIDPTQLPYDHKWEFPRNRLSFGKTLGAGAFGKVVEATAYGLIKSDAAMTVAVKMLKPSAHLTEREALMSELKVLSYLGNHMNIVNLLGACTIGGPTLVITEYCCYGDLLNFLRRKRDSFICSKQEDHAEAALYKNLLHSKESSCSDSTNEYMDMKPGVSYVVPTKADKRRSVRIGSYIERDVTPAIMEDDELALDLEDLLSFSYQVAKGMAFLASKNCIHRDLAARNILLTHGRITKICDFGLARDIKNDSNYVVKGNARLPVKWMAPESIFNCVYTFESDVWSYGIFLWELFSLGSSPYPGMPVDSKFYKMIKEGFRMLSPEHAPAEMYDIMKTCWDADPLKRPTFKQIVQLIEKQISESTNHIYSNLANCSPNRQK

FGFR1 = molecular target: T4, FGFR1 (Homo sapiens, UniProt P11362, C488A/C584S); assay: AlphaScreen kinase assay, FGFR1; conditions: read-out: IC50, activity toward kinase FGFR
T4 construct: P1351.pET N6 BI-PTP FGFR A458-E765-X C488A, C584S; made in house; host or cells: E. coli (PTP1B co-expressed)
T4 sequence (P11362 458-765 C488A/C584S): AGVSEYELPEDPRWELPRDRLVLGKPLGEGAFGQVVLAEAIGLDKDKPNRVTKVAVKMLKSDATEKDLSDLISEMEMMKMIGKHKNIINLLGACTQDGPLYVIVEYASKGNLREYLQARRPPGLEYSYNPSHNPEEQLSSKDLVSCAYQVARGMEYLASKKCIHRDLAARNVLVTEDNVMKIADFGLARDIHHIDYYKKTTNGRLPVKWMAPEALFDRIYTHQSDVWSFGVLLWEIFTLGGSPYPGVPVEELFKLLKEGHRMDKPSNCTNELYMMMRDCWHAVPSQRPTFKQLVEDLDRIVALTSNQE

Flt4 = molecular target: T5, Flt4 (Homo sapiens, UniProt P35916); assay: AlphaScreen kinase assay, Flt4; conditions: read-out: IC50, activity toward kinase Flt4
T5 construct: purchased ProQinase GmbH (Freiburg, Germany)
T5 sequence (P35916 25-1363): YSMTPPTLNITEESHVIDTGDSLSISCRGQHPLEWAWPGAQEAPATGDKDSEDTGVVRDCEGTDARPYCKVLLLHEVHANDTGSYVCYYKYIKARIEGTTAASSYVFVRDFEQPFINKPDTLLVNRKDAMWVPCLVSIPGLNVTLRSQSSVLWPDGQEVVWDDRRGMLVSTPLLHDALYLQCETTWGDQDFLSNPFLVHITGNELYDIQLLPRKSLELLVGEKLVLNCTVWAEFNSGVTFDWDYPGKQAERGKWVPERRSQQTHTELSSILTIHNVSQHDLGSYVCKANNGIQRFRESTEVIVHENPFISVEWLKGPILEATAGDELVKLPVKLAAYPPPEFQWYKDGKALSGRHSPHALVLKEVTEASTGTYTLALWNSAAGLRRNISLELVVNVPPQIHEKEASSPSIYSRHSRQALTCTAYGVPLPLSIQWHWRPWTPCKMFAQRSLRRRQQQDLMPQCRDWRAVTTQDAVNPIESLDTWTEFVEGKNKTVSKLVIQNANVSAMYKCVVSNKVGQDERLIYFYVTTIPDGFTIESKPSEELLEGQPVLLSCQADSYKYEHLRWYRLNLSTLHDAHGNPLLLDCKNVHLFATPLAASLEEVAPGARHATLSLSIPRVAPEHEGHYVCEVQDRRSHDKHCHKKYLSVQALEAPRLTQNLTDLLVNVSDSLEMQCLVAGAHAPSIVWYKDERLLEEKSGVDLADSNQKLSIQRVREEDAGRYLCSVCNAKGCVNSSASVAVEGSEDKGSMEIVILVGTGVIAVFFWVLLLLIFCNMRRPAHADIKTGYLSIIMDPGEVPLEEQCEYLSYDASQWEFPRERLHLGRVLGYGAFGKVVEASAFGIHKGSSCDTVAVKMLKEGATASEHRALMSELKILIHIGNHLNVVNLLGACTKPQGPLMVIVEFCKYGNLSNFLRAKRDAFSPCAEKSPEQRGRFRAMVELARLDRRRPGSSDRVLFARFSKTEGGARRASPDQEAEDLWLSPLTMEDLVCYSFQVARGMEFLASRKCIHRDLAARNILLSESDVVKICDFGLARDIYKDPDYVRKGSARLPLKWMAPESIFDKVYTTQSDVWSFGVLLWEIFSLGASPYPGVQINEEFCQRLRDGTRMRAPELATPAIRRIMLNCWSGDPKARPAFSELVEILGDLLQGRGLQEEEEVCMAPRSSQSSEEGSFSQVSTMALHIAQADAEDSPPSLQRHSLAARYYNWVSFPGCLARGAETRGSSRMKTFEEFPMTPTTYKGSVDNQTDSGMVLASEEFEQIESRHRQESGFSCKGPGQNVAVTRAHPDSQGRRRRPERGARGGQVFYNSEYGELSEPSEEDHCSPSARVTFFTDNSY
Source text: AlphaScreen assay was used to screen additional kinases. The assay is similarly dependent on the phosphorylation of a peptide substrate. In this assay, an antibody that recognizes phosphorylated substrate is bound to an acceptor bead. The peptide substrate is attached to biotin, which binds to a donor head that contains streptavidin. Thus phosphorylated substrate is bound by antibody and streptavidin, bringing the donor and acceptor heads into close proximity when kinase is not inhibited. The donor produces singlet oxygen which results in emission from the acceptor when they are in close proximity. Conversely, when kinase is inhibited, the donor and acceptor beads are not associated and the emission from the acceptor is reduced.
AlphaScreen assays were done using compounds dissolved in DMSO to a concentration of 20 mM. The compounds were diluted accordingly to the desired final concentrations in each sample well, using 1:3 serial dilution for a total of 8 concentration points.

Abl = molecular target: T6, Abl (Homo sapiens, UniProt P00519); assay: AlphaScreen kinase assay, Abl; conditions: read-out: activity toward kinase Abl, IC50
T6 construct: P1121. pET-SPEC BI-PTP Abl G227-V515-X; His6 (N); made in house; host or cells: E. coli (PTP1B co-expressed)
T6 sequence (P00519 with tags, fused parts or gaps): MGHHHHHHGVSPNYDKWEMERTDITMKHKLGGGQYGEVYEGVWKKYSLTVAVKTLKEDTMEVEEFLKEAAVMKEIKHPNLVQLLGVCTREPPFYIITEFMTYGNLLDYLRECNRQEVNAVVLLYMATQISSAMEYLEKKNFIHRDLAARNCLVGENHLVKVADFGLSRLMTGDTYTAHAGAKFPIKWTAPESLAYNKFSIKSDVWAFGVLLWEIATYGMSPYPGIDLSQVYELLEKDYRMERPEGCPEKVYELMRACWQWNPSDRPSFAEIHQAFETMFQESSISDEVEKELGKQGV
Procedure, shortened: as §1

Kdr = molecular target: T7, Kdr (Homo sapiens, UniProt P35968); assay: Z'-Lyte FRET kinase assay (Invitrogen), Kdr; conditions: read-out: IC50, activity toward kinase Kdr
T7 construct: purchased Invitrogen (assay run by Invitrogen)
T7 sequence (P35968 20-1356): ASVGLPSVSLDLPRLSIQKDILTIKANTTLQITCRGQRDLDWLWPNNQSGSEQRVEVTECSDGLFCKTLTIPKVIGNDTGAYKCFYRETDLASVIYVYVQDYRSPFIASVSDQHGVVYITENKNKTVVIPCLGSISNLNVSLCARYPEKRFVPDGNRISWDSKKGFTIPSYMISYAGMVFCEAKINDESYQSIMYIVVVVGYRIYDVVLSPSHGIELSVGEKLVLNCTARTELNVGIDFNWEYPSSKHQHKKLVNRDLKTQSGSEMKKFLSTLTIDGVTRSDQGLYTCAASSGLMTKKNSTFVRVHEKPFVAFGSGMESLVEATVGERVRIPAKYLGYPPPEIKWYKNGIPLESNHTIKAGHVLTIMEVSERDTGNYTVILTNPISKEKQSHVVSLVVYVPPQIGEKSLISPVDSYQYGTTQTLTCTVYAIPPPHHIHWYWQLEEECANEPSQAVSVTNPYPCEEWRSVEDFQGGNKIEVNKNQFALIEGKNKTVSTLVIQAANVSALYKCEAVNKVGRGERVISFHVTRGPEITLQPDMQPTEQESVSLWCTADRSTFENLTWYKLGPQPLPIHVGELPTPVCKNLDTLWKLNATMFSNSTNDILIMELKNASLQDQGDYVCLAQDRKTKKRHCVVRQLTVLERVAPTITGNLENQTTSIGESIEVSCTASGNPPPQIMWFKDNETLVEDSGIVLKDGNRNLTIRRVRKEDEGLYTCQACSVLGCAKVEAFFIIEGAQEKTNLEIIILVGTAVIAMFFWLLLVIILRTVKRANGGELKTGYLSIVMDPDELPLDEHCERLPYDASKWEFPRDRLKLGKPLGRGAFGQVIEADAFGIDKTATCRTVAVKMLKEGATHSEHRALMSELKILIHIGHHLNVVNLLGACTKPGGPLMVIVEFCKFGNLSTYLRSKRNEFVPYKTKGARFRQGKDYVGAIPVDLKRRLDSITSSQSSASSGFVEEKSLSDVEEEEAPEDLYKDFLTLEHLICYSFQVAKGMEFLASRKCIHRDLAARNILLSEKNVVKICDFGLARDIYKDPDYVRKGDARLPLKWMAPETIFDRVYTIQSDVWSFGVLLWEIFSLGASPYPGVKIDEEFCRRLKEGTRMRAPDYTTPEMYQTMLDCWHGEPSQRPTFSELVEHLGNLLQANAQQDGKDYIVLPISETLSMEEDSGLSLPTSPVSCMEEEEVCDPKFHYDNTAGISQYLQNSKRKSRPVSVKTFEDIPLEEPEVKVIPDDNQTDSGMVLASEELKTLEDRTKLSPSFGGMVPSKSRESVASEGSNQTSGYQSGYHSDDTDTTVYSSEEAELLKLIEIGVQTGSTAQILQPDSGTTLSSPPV

Pyk2 = molecular target: T8, Pyk2 (Homo sapiens, UniProt Q14289); assay: AlphaScreen kinase assay, Pyk2; conditions: read-out: IC50, activity toward kinase Pyk2
T8 construct: purchased Upstate Biotechnology

MAP4K4 = MAP4K4 (Homo sapiens, UniProt O95819); assay: AlphaScreen kinase assay, MAP4K4; conditions: read-out: IC50, activity toward kinase MAP4K4
MAP2K1 = molecular target: T9, MAP2K1 (Homo sapiens, UniProt Q02750); assay: Z'-Lyte FRET kinase assay (Invitrogen), MAP2K1; conditions: read-out: IC50, activity toward kinase MAP2K1
T9 construct: purchased Invitrogen (assay run by Invitrogen)
T9 sequence (Q02750 whole entry): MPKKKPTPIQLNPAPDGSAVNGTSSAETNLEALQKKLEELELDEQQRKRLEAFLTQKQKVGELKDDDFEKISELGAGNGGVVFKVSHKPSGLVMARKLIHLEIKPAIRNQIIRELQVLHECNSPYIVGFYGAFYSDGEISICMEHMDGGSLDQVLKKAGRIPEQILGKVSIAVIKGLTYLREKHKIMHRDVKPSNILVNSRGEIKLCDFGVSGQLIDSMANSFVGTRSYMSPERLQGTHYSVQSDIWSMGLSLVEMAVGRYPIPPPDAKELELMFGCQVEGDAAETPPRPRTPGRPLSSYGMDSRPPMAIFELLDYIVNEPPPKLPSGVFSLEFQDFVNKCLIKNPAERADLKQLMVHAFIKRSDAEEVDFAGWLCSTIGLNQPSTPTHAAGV

B-Raf V600E = molecular target: T10, B-Raf V600E (Homo sapiens, UniProt P15056, V600E); assay: AlphaScreen kinase assay, B-Raf V600E; conditions: read-out: IC50, activity toward kinase B-Raf V600E
T10 construct: P4254. pFastBacBD-CDC37 BRAF D437-K722-X, V600E; His6 with pFastBac HT leader (TEV site) (N); made in house; host or cells: Sf9 (baculovirus; chaperone CDC37 co-expressed)
T10 sequence (P15056 with tags, fused parts or gaps V600E): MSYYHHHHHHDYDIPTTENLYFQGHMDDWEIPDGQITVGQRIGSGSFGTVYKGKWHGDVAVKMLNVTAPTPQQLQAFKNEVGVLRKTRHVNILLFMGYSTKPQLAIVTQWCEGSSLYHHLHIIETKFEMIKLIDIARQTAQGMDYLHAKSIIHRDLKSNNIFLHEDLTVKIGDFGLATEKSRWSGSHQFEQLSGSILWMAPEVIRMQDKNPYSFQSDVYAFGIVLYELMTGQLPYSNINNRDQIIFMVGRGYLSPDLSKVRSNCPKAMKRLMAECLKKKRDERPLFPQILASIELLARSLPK

Src = molecular target: T11, Src (Homo sapiens, UniProt P12931); assay: AlphaScreen kinase assay, Src; conditions: read-out: IC50, activity toward kinase Src
T11 construct: P1144. pET-N6 BI-PTP SRC V86-L536-X; made in house

Btk = molecular target: T12, Btk (Homo sapiens, UniProt Q06187); assay: Z'-Lyte FRET kinase assay (Invitrogen), Btk; conditions: read-out: IC50, activity toward kinase Btk
T12 construct: purchased Invitrogen (assay run by Invitrogen)

Yes = molecular target: T13, Yes (Homo sapiens, UniProt P07947); assay: Z'-Lyte FRET kinase assay (Invitrogen), Yes; conditions: read-out: IC50, activity toward kinase Yes
T13 construct: purchased Invitrogen (Carlsbad, Calif.), screening service
Procedure, shortened: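 Serially diluted compound (1% DMSO final) is mixed with kinase plus 2 μM peptide substrate in pH 7.5 HEPES buffer, then ATP is added to 10 μM. After 1 h at room temperature, site-specific protease is added for another hour, reactions are stopped and fluorescence ratio measured.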

Fms = molecular target: T14, Fms (Homo sapiens, UniProt P07333); assay: AlphaScreen kinase assay, Fms; conditions: read-out: IC50, activity toward kinase Fms
T14 construct: purchased Upstate Biotechnology
T14 sequence (P07333 20-972): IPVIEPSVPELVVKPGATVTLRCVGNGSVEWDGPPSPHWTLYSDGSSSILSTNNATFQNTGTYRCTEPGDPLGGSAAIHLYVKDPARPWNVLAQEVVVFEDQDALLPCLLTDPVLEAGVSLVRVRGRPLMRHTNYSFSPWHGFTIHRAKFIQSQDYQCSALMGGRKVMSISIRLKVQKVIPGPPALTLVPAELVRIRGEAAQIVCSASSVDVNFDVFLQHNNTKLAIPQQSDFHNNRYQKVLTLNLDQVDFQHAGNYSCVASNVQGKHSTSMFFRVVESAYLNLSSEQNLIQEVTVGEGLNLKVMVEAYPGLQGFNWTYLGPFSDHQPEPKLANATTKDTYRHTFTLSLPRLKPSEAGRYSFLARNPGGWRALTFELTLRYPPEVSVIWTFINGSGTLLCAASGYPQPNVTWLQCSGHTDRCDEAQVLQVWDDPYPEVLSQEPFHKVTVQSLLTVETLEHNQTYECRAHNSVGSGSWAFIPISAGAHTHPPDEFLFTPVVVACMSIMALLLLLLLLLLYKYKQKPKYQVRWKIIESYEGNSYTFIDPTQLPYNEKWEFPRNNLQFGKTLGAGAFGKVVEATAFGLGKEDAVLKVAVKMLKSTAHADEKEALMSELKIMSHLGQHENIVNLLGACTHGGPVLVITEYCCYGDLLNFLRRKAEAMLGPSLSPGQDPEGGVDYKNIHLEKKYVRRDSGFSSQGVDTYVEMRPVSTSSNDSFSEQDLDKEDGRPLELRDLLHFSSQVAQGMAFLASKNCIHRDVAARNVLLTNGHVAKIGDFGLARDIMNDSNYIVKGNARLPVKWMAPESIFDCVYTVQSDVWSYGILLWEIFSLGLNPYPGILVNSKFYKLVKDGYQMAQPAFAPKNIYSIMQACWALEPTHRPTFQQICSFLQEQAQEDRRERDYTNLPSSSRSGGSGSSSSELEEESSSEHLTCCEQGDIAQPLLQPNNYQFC

c-Raf-1 = molecular target: T15, c-Raf-1 (Homo sapiens, UniProt P04049); assay: AlphaScreen kinase assay, c-Raf-1; conditions: read-out: IC50, activity toward kinase c-Raf-1
T15 construct: purchased Upstate Biotechnology

Flt1 = molecular target: T16, Flt1 (Homo sapiens, UniProt P17948); assay: AlphaScreen kinase assay, Flt1; conditions: read-out: IC50, activity toward kinase Flt1
T16 construct: P1826.pETN6 BI-PTP FLT1 M799-D1165-X WT; His6 (N); made in house; host or cells: E. coli (PTP1B co-expressed)
T16 sequence (P17948 with tags, fused parts or gaps): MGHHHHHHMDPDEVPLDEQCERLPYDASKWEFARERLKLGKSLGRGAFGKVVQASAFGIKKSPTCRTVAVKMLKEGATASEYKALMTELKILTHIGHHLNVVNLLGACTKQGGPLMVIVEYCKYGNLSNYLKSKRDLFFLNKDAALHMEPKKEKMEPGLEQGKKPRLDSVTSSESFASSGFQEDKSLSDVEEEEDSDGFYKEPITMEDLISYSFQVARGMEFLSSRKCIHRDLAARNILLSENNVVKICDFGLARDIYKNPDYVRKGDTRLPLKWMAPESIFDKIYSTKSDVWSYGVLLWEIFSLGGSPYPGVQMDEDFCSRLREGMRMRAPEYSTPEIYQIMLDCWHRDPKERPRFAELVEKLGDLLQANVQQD

Met = molecular target: T17, Met (Homo sapiens, UniProt P08581); assay: AlphaScreen kinase assay, Met; conditions: read-out: IC50, activity toward kinase Met
T17 construct: P1818.pETN6 BI-PTP MET G1056-G1364-X WT; His6 (N); made in house; host or cells: E. coli (PTP1B co-expressed)
Procedure, shortened: as §1

Jnk3 = molecular target: T18, Jnk3 (Homo sapiens, UniProt P53779); assay: AlphaScreen kinase assay, Jnk3; conditions: read-out: IC50, activity toward kinase Jnk3
T18 construct: purchased Upstate Biotechnology

Stk6 = molecular target: T19, Stk6 (Homo sapiens, UniProt O14965); assay: Z'-Lyte FRET kinase assay (Invitrogen), Stk6; conditions: read-out: IC50, activity toward kinase Stk6
T19 construct: purchased Invitrogen (Carlsbad, Calif.), screening service
T19 sequence (O14965 1-403): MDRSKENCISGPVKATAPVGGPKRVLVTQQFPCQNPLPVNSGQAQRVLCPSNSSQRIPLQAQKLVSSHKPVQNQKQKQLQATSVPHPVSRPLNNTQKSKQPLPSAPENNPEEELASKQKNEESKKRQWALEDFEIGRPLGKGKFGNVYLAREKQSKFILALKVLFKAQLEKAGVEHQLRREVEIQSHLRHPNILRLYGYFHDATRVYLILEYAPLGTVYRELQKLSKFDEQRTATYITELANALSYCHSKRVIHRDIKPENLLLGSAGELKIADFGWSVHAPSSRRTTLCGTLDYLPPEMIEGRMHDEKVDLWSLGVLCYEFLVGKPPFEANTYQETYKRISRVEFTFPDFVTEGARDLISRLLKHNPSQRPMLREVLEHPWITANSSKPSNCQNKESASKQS

Jnk1 = molecular target: T20, Jnk1 (Homo sapiens, UniProt P45983); assay: AlphaScreen kinase assay, Jnk1; conditions: read-out: IC50, activity toward kinase Jnk1
T20 construct: purchased Upstate Biotechnology

Zap70 = molecular target: T21, Zap70 (Homo sapiens, UniProt P43403); assay: AlphaScreen kinase assay, Zap70; conditions: read-out: IC50, activity toward kinase Zap70
T21 construct: P1868.pFastBac1 ZAP70 D327-G606 HIS, WT; His7 (HHHHHHH) (C); made in house
T21 sequence (P43403 with tags, fused parts or gaps): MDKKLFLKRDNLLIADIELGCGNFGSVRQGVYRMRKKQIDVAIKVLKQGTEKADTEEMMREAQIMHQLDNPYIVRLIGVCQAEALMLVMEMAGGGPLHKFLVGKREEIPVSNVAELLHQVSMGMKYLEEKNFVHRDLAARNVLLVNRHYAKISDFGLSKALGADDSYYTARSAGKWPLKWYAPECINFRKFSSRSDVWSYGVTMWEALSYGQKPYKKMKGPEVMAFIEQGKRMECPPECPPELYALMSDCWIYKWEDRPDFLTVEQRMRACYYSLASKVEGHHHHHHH
Procedure, shortened: as §1

Measured: IC50

COc1cccc(Cc2c[nH]c3ncc(-c4cccs4)cc23)c1 [Compound P-0142]
≤ 10 µM: Ret | Jnk2 | Kit | FGFR1 | Flt4 | Abl | Kdr | Pyk2

CS(=O)(=O)Nc1cccc(C(=O)c2c[nH]c3ncccc23)c1 [Compound P-0198]
≤ 10 µM: MAP4K4 | FGFR1 | MAP2K1 | Kdr

COc1ccc(C(=O)c2c[nH]c3ncccc23)c(Cl)c1 [Compound P-0152]
≤ 10 µM: B-Raf V600E | Ret | MAP4K4 | Kit | FGFR1 | Src | Btk | MAP2K1 | Kdr | Yes | Fms

CS(=O)(=O)Nc1ccc(F)c(C(=O)c2c[nH]c3ncc(Br)cc23)c1 [Compound P-0170, N-[3-(5-Bromo-1H-pyrrolo[2,3-b]pyridine-3-carbonyl)-4-fluoro-phenyl]-methanesulfonamide]
≤ 10 µM: B-Raf V600E | FGFR1 | MAP2K1 | Kdr | c-Raf-1 | Fms

O=C(CCc1c[nH]c2ncccc12)NCc1ccccc1 [Compound P-0331]
≤ 10 µM: MAP2K1

COc1ccc(F)c(C(=O)c2c[nH]c3ncc(-c4cccc(NC(C)=O)c4)cc23)c1 [Compound P-0325]
≤ 10 µM: B-Raf V600E | Ret | Kit | FGFR1 | Btk | Flt4 | Flt1 | Fms | Met

Cc1cc(C(=O)c2c[nH]c3ncc(-c4cccc(N)c4)cc23)nn1C [Compound P-0117]
≤ 10 µM: Jnk3 | Ret | Kit | Stk6 | Flt4 | Kdr | Met

O=C1NCc2ccccc2N1Cc1c[nH]c2ncccc12 [Compound P-0194]
≤ 10 µM: Flt1 | MAP2K1 | Kdr

O=C(c1ccccc1F)c1c[nH]c2ncccc12 [Compound P-0158]
≤ 10 µM: Ret | FGFR1 | MAP2K1 | Kdr

S=C(NCc1c[nH]c2ncccc12)Nc1cccc(Cl)c1 [Compound P-0337]
≤ 10 µM: Flt1 | MAP2K1 | Kdr

Nc1cccc(-c2cnc3[nH]cc(C(=O)c4ccccc4F)c3c2)c1 [Compound P-0624]
≤ 10 µM: Jnk3 | B-Raf V600E | Ret | Jnk1 | Kit | FGFR1 | Src | Zap70 | Flt4 | Flt1 | Abl | Kdr

O=C(NCc1cccc(Cl)c1)NCc1c[nH]c2ncccc12 [Compound P-0568]
≤ 10 µM: MAP2K1

c1cncc(-c2c[nH]c3ncccc23)c1 [Compound P-0023]
≤ 10 µM: Stk6 | MAP2K1 | Kdr
